Measured values as given in US20150344957A1, “MONITORING TREATMENT OF HISTIOCYTOSIS WITH VEMURAFENIB AND DABRAFENIB” (TROVAGENE, INC., priority 2014, published 2015).
“Also recorded” adds a separate entry of the source.

Tested on: BRAF V600E mutation in urinary cfDNA
Assay: Monitoring of BRAF V600E mutation in urinary cfDNA (droplet digital PCR) of treated LCH/ECD patients
Type: in vivo, human
Settings: for detection of mutant BRAF V600E in urine cfDNA, treatment naive versus treated patient samples: FIG. 3, treated versus treatment-naive samples; for BRAF V600E mutation burden in urinary cfDNA over time on therapy: histiocytosis (LCH/ECD) patients, serial urine samples during treatment, FIG. 4-6
Description: Urinary cell-free (cf)DNA analysis was performed in all patients and plasma cfDNA analysis in 19/26 patients. Serial urinary samples in 10 BRAF V600E mutant samples were also obtained to track disease burden with therapy. Urine and plasma cfDNA were quantified by a droplet digital PCR (ddPCR; QX-100, BioRad).
A two-step assay design was developed for a 28-30 basepair footprint in the target mutant gene sequence. FIG. 1 summarizes the assay design, which includes a first preamplification step to increase the number of copies of a target mutant gene sequence relative to wild-type gene sequences that are present in the sample. The pre-amplification is conducted in the presence of a wild-type (non-mutant) suppressing “WT blocker” oligonucleotide that is complementary to the wild-type sequence (but not the mutant sequence) to decrease amplification of wild-type DNA. The pre-amplification is performed with primers that include adapters (or “tags”) at the 5′ end to facilitate amplification in the second step.
The second step is additional amplification with primers complementary to the tags on the ends of the primers used in the first step and a TaqMan (reporter) probe oligonucleotide complementary to the mutant sequence for quantitative, digital droplet PCR.

SMILES | detection of mutant BRAF V600E in urine cfDNA, treatment naive versus treated patient samples | BRAF V600E mutation burden in urinary cfDNA over time on therapy | BRAF V600E mutation in urinary cfDNA after the end of treatment (one subject, end of treatment, FIG. 6)
CC(C)(C)c1nc(-c2cccc(NS(=O)(=O)c3c(F)cccc3F)c2F)c(-c2ccnc(N)n2)s1 [dabrafenib, N-{3-[5-(2-aminopyrimidin-4-yl)-2-tert-butyl-1,3-thiazol-4-yl]-2-fluorophenyl}-2,6-difluorobenzenesulfonamide] | decreased detection of mutant BRAF V600E | a decrease in the mutation in cfDNA during the course of treatment | 
CCCS(=O)(=O)Nc1ccc(F)c(C(=O)c2c[nH]c3ncc(-c4ccc(Cl)cc4)cc23)c1F [vemurafenib, N-{3-[5-(4-Chlorophenyl)-1H-pyrrolo[2,3-b]pyridin-3-carbonyl]-2,4-difluorophenyl}propane-1-sulfonamide] | decreased detection of mutant BRAF V600E | a decrease in the mutation in urinary cfDNA; also recorded: decreased BRAF mutant allele burden with therapy | an increase, or “rebound,” in the amount of the mutation in urinary cfDNA
